Measurements reported in patent publication US20090042883A1, “ANTITUMOR AGENT” (KYOWA HAKKOKOGYO CO., priority 2005, published 2009).

What was measured:
Format in all cases: cell-based
[1] = test system: human chronic myelocytic leukemia K562 cells; assay: Growth inhibition test on human chronic myelocytic leukemia K562 cells (WST-1, % viability); details: test compound 10 μmol/L, 72 hours, cells without test compound = 100%
Description: (§1) One thousand cells of human chronic myelocytic leukemia K562 were inoculated into each well of a 96-well microplate (manufactured by Nunc Corp.), and using RPMI1640 medium (culture medium) containing 10% fetal calf serum (FCS), preculturing was performed in a 5% carbon dioxide incubator at 37° C. for 24 hours. A dimethyl sulfoxide (DMSO) solution of each test compound prepared in a concentration of 10 mmol/L was diluted with the culture medium to a final concentration of 10 μmol/L, and the diluted solution was added to each well. The individual wells were further cultured in the 5% carbon dioxide incubator at 37° C. for 72 hours. After completion of the culturing, 10 μL of WST-1 {4-[3-(4-Iodophenyl)-2-(4-nitrophenyl)-2H-5-tetrazolio]-1,3-benzene disulfonate} labeled mixture (manufactured by Roche Diagnostic Corp.) was added to each well, and culturing was performed in the 5% carbon dioxide incubator at 37° C. for 2 hours. Using a microplate spectrophotometer (SpectraMax 340PC384; manufactured by Nihon Molecular Devices), the absorbance of each well was measured at 450 nm and 655 nm. The value obtained by subtracting the absorbance at 450 nm from the absorbance at 655 nm (absorbance difference) was calculated for each well. The value for cells not incorporated with a test compound was designated as 100%, and the value at a well not containing cells was designated as 0%. By comparing these values with the absorbance difference obtained at the well in which each test compound was added, the cell viability (% viability) after treatment with the test compound was calculated.

[2] = test system: human multiple myeloma NCI-H929 cells; assay: Growth inhibition test on human multiple myeloma NCI-H929 cells (WST-1, % viability); details: test compound 10 μmol/L, cells without test compound = 100%
Description: as §1, with “Ten” for “One”, “multiple myeloma NCI-H929” for “chronic myelocytic leukemia K562”, “RPMI” for “RPMI1640”, “FCS,” for “fetal calf serum (FCS),”, “DMSO” for “dimethyl sulfoxide (DMSO)”, “WST-1” for “WST-1 {4-[3-(4-Iodophenyl)-2-(4-nitrophenyl)-2H-5-tetrazolio]-1,3-benzene disulfonate}”

[3] = test system: human mammary cancer BT-474 cells; assay: Growth inhibition test on human mammary cancer BT-474 cells (WST-1, % viability); details: test compound 10 μmol/L, cells without test compound = 100%
Description: as §1, with “Four” for “One”, “mammary cancer BT-474” for “chronic myelocytic leukemia K562”, “Dulbecco's Modified Eagle's Medium (DMEM)” for “RPMI1640 medium”, “FCS,” for “fetal calf serum (FCS),”, “DMSO” for “dimethyl sulfoxide (DMSO)”, “WST-1” for “WST-1 {4-[3-(4-Iodophenyl)-2-(4-nitrophenyl)-2H-5-tetrazolio]-1,3-benzene disulfonate}”

[4] = test system: human prostate cancer 22Rv1 cells; assay: Growth inhibition test on human prostate cancer 22Rv1 cells (WST-1, % viability); details: test compound 10 μmol/L, 72 hours, cells without test compound = 100%
Description: Five thousand cells of human prostate cancer 22Rv1 were inoculated into each well of a 96-well microplate (manufactured by Nunc Corp.), and using RPMI1640 medium (culture medium) containing 10% FCS, preculturing was performed in a 5% carbon dioxide incubator at 37° C. for 24 hours. A DMSO solution of each test compound prepared in a concentration of 10 mmol/L was diluted with the culture medium to a final concentration of 10 μmol/L, and the diluted solution was added to each well. The individual wells were further cultured in the 5% carbon dioxide incubator at 37° C. for 72 hours. After completion of the culturing, 10 μL of WST-1 labeled mixture (manufactured by Roche Diagnostic Corp.) was added to each well, and culturing was performed in the 5% carbon dioxide incubator at 37° C. for 2 hours. Using a microplate spectrophotometer (Model 550; manufactured by Bio-Rad), the absorbance of each well was measured at 450 nm and 655 nm. The value obtained by subtracting the absorbance at 450 nm from the absorbance at 655 nm (absorbance difference) was calculated for each well. The value for cells not incorporated with a test compound was designated as 100%, and the value at a well not containing cells was designated as 0%. By comparing these values with the absorbance difference obtained at the well in which each test compound was added, the cell viability (% viability) after treatment with the test compound was calculated.

| Structure (SMILES) | Viability of tumor cells (% viability), Human chronic myelocytic leukemia K562 cells [1] [%] | Viability of tumor cells (% viability), Human multiple myeloma NCI-H929 cells [2] [%] | Viability of tumor cells (% viability), Human mammary cancer BT-474 cells [3] [%] | Viability of tumor cells (% viability), Human prostate cancer 22Rv1 cells [4] [%] |
| --- | --- | --- | --- | --- |
| CCc1c(O)cc(O)c(C(=O)c2ccc(OCCN3CCOCC3)c(OC)c2)c1CC(=O)N(CCOC)CCOC [Compound 125] | 4 | 0 | 14 | 5 |
| CCc1c(O)cc(O)c(C(=O)c2ccc(OC(C)C)cc2)c1CC(=O)N(CCO)CCOC [Compound 124] | 4 | 0 | 13 | 5 |
| CCc1c(O)cc(O)c(C(=O)c2ccc(S(C)(=O)=O)cc2)c1CC(=O)N(CCOC)CCOC [Compound 107] | 5 | 0 | 13 | 5 |
| CCc1c(O)cc(O)c(C(=O)c2ccc(OCCCN3CCOCC3)c(OC)c2)c1CC(=O)N(CCOC)CCOC [Compound 149] | 4 | 0 | 14 | 4 |
| CCc1c(O)cc(O)c(C(=O)c2ccc(OC)c(OC)c2)c1CC(=O)N(CCO)CCOC [Compound 56] | 5 | 0 | 13 | 5 |
| CCc1c(O)cc(O)c(C(=O)c2ccc(OC(C)C)cc2)c1CC(=O)N(CCOC)CCN1CCOCC1 [Compound 134] | 4 | 0 | 13 | 6 |
| CCc1c(O)cc(O)c(C(=O)c2ccc(C(F)(F)F)cc2)c1CC(=O)N(CCO)CCOC [Compound 144] | 4 | 0 | 13 | 5 |
| CCc1c(O)cc(O)c(C(=O)c2ccsc2)c1CC(=O)N(CCO)CCOC [Compound 151] | 4 | 0 | 13 | 5 |
| CCOc1ccc(C(=O)c2c(O)cc(O)c(CC)c2CC(=O)N(CCO)CCOC)cc1 [Compound 122] | 4 | 0 | 12 | 5 |
| CCc1c(O)cc(O)c(C(=O)c2ccc(OC)cc2)c1CC(=O)N1CCC(CO)CC1 [Compound 61] | 5 | 0 | 12 | 5 |
| CCc1c(O)cc(O)c(C(=O)c2ccc(OC)cc2)c1CC(=O)N1CCN(c2ncccn2)CC1 [Compound 32] | 4 | 0 | 13 | 5 |
| CCc1c(O)cc(O)c(C(=O)c2ccc(O)c(OC)c2)c1CC(=O)N(CCOC)CCOC [Compound 106] | 4 | 0 | 12 | 5 |
| CCc1c(O)cc(O)c(C(=O)c2ccc(OC)cc2)c1CC(=O)N(CCO)CCOC [Compound 33] | 4 | 0 | 13 | 5 |
| CCc1c(O)cc(O)c(C(=O)c2ccc(SC)cc2)c1CC(=O)N(CCO)CCOC [Compound 95] | 4 | 0 | 13 | 5 |
| CCc1c(O)cc(O)c(C(=O)c2ccc(OC)cc2)c1CC(=O)N(C)Cc1cccnc1 [Compound 16] | 4 | 0 | 12 | 5 |
| CCc1c(O)cc(O)c(C(=O)c2ccc(OC)cc2)c1CC(=O)N(CCO)CCO [Compound 13] | 26 | 0 | 12 | 6 |
| CCc1c(O)cc(O)c(C(=O)c2ccc(OC)c(OC)c2)c1CC(=O)N1CCN(c2ccccc2)CC1 [Compound 41] | 4 | 0 | 14 | 5 |
| CCc1c(O)cc(O)c(C(=O)c2ccc(OC)cc2)c1CC(=O)N1CCc2cc(OC)c(OC)cc2C1 [Compound 38] | 4 | 0 | 13 | 4 |
| CCc1c(O)cc(O)c(C(=O)c2ccc(OC(F)(F)F)cc2)c1CC(=O)N(CCO)CCOC [Compound 88] | 4 | 0 | 13 | 6 |
